Measured values taken from patent publication US20240050571A1, “CARBORANE HYDROXAMIC ACID MATRIX METALLOPROTEINASE INHIBITORS AND AGENTS FOR BORON NEUTRON CAPTURE THERAPY” (LOYOLA UNIVERSITY OF CHICAGO, priority 2018, published 2024).

Assays:
MMP-2 = MMP-2 (Homo sapiens (Human), UniProt P08253); conditions: read-out: MMP-2 IC50
MMP-9 = MMP-9 (Homo sapiens (Human), UniProt P14780); test: Assay for inhibition of MMP (fluorescence), MMP-9; conditions: read-out: MMP-9 IC50
MMP-9, sequence (P14780 107-707 limits assumed): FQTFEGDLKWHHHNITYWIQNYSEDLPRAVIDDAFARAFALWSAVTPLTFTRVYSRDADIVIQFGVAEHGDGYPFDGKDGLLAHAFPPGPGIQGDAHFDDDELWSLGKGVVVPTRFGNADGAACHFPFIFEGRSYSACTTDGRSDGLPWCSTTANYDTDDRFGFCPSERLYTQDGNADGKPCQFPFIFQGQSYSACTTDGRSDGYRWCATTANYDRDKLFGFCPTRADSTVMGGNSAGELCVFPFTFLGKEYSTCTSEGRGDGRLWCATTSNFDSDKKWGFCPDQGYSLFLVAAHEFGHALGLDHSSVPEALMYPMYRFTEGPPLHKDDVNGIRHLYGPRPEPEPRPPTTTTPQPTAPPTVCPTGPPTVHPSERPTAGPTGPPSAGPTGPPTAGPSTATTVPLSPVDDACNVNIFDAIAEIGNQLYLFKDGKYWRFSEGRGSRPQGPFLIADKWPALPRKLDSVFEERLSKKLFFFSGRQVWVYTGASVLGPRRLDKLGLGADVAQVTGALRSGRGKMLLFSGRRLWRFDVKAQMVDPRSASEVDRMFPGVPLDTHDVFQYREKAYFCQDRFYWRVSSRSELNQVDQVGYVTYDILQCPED

MMP-2, sequence (P08253 110-660 limits assumed): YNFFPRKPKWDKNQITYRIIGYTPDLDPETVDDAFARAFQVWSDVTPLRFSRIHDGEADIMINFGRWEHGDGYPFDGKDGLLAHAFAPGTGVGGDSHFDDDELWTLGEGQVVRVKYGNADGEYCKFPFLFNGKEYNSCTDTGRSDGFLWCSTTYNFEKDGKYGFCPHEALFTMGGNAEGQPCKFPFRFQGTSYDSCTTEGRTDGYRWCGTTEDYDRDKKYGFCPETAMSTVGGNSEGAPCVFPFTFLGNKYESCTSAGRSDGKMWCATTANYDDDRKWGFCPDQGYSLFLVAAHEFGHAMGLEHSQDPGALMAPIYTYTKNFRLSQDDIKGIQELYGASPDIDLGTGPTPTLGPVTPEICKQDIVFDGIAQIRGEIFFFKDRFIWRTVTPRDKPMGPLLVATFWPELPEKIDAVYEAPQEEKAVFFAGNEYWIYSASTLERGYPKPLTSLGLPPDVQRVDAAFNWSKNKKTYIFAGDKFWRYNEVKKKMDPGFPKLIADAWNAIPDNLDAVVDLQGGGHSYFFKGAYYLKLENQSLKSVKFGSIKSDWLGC

SMILES: COc1ccc(S(=O)(=O)N(CC(=O)NO)CC(C)C)cc1 [NNGH, N-Isobutyl-N-(4-methoxyphenylsulfonyl)glycyl hydroxamic acid]
- IC50 (MMP-2): 2.7 nM
- IC50 (MMP-9): 5 nM
